{"source": "patent US20220340955A1", "about": "“METHODS FOR DIAGNOSING AND TREATMENT MONITORING OF ADNP-DEFICIENT PATIENTS” (RAMOT AT TEL-AVIV UNIVERSITY LTD., priority 2019, published 2022)", "key": {"[1]": {"tested_on": "murine intestinal microbiota", "assay": "Murine fecal microbiota analysis (qRT-PCR, 16S rRNA gene) in Adnp+/− mouse model", "format": "in vivo", "protocol": "(§1) All procedures involving animals in the Adnp-mutated mouse model were approved by the Animal Care and Use Committee of Tel Aviv University and the Israeli Ministry of Health. Adnp heterozygous mice (Adnp^+/−) on an ICR background (an outbred mouse line), a model for the ADNP syndrome (Hacohen-Kleiman et al. 2018), were housed in a 12-h light/12-h dark cycle facility with free access to rodent chow and water. Genotyping was performed by Transnetyx (Memphis, Tenn.). After genotyping, the mice were housed in separate cages based on sex, genotype and treatment (up to five mice per cage), for two weeks prior to beginning of NAP treatment.\n(§2) NAP peptide was custom made as described in (Hacohen-Kleiman et al. 2018). Prior to behavioral tests, intranasal treatment was administered daily to 1-month-old male and female mice (0.5 μg/5 μl/mouse/dose). For intranasal administration, the peptide was dissolved in a vehicle solution, termed DD, in which each milliliter included 7.5 mg of NaCl, 1.7 mg of citric acid monohydrate, 3 mg of disodium phosphate dihydrate, and 0.2 mg of benzalkonium chloride solution (50%). Each mouse was handheld in a semi-supine position with nostrils facing the investigator. A pipette tip was used to administer 5 μl/two nostrils. The mouse was handheld until the solution was entirely absorbed (˜10 s). Nasal NAP application was performed daily, once a day, for 45 days (5 days a week). After 45 days of treatment, in days of scheduled behavioral tests, NAP was applied 2 h before the test.\nFecal pellets (1-2/mice) were collected 45 days after the beginning of treatment (NAP or DD) and stored at −80° C. until DNA purification procedures. The samples were thawed on ice mixed with 400 μl of sterile PBS/sample followed by mechanical disruption of the sample using a BeadBug microtube homogenizer (Daniel Biotech, Rehovot, Israel) for 2 minutes at 4,000 rpm. A 25 μl sample of lysozyme solution (20 mg/ml) was added, and the samples were incubated with shaking for 30 min at 37° C. on a thermo shaker racking platform. Next, 20 μl proteinase K (20 mg/ml) was included and the samples were thoroughly mixed with 400 μl of sterile lysis buffer (20 mM Tris HCl, 300 mM NaCl, 400 mM EDTA and 1% SDS) and incubated with shaking for 60 min at 56° C. on a thermo shaker racking platform. Next, 300 mg sterile zirconium beads and 150 μl of phenol was added to the samples followed by homogenization (twice for 40 sec. at 4,000 rpm, Daniel biotech, Rehovot, Israel). Then, 150 μl of CI-solution (chloroform-isoamyl alcohol 24:1) was added, mixed and submitted for centrifugation 13,000 rpm at room temperature for 5 minutes, Eppendorf Centrifuge 5417R (Eppendorf, Hamburg, Germany). A 600 μl volume of supernatant was removed and placed in a sterile 2 mL Eppendorf tube. 150 μl of CI-solution was then included and the samples were subjected to centrifugation as above. A 400 μl of aqueous, clear top phase was removed and placed in a sterile 2 mL Eppendorf tube. Then, the 400 μl of DNA solution was mixed with 100 μl of precipitation solution (40 mM EDTA 1.2M sodium acetate and 4 mg/ml glycogen). 1.3 mL of ice-cold 100% ethanol was added, the samples were then mixed and stored over night at −20° C. for DNA precipitation followed by centrifugation (13,000 rpm) at 4° C. The supernatant was discarded and the pellet washed with 500 μl ice-cold 70% ethanol followed by centrifugation for 5 minutes at 13,000 rpm, 4° C. (this step was repeated twice). The pellet was dried in the Speed Vac (Eppendorf Concentrator 5301) for 15 minutes and then re-suspended in 100 μl sterile water. Next, the samples were mixed on the shaker for 10 minutes at room temperature. In the next step, the samples were further purified using Qiagen Purification Kit according to the manufacturer's instructions ([…], Hilden, Germany). DNA was eluted in 100 μl sterile water and stored at −20° C. for long storage. […]"}, "Adnp+/− mice [2]": {"tested_on": "Adnp+/− mice", "assay": "Open field behavior of Adnp+/− mice", "format": "in vivo, mouse", "protocol": "as §1, §2\nThe test provides a unique opportunity to systematically assess novel environment exploration, general locomotor activity, and anxiety-related behavior in rodents. […] The distance moved and time spent in the entire open field, as well as in its inner defined quadrants (center, border) was recorded using the EthoVision XT video tracking system and software (Noldus Inc. Leesburg, VA). […]"}, "[3]": {"assay": "Body weight of Adnp+/− mice", "format": "in vivo, mouse", "conditions": "male Adnp+/− cohort, NAP treatment", "protocol": "as §1\nas §2, with “Nasal NAP application was performed daily, once a day, for 45 days (5 days a week). After 45 days of treatment, in days of scheduled behavioral tests, NAP was applied 2 h before the test.” left out"}, "[4]": {"tested_on": "human microbiota-harboring mice suffering from subacute ileitis", "conditions": "gut inflammation model; cited from earlier work"}, "Adnp+/− mice [5]": {"tested_on": "Adnp+/− mice", "conditions": "exogenous administration of NAP; cited from earlier work"}, "Adnp p.Tyr718* mice": {"tested_on": "Adnp p.Tyr718* mice", "assay": "Visual evoked potential in CRISPR/Cas9 Adnp p.Tyr718* mice", "format": "in vivo, mouse", "conditions": "Adnp p.Tyr718* mice (discovered in males), NAP treatment", "from_the_text": "We have developed another Adnp mutated mouse model using CRISP/Cas9 technology. The mice carry the most prevalent ADNP syndrome mutation (e.g. Adnp p.Tyr718* in the mouse corresponding to ADNP pTyr719* in the human). […] Monitoring visual evoked potential provides an objective observation of aberrant ADNP activity on one hand and its correction by treatment, e.g. by NAP peptide on another hand. Given the results in Example 1, gut microbiota samples are now being analyzed and are correlated also to visual evoked potential responses of males and females, coupling biomarkers for better diagnostics and clinical monitoring. The following bacteria in gut microbiota are tested and correlated with changes in visual evoked potential in subjects having aberrant ADNP activity: Bifidobacterium, Clostridium, Bacteroides, Faecalibacterium, Eubacterium, Ruminococcus, Peptococcus, Peptostreptococcus, Parabacteroides, Escherichia coli, Verrucomicrobia, Lactobacillus, Clostridium coccoides group, Mouse Intestinal Bacteroides (MIB) Enterococcus genus (gEncocc) and Clostridium Cluster IV (sgClep)."}, "[6]": {"conditions": "female Adnp+/− mice, fecal samples, intranasal NAP 0.5 μg/mouse daily, 45 days"}, "[7]": {"conditions": "females, genotype and NAP treatment effect"}, "[8]": {"conditions": "male Adnp+/− mice, fecal samples, intranasal NAP 0.5 μg/mouse daily, 45 days"}, "[9]": {"conditions": "males, genotype and NAP treatment effect"}}}
{"sequence": "NAPVSIPQ", "values": [{"measurement": "Changes in microbiota (overall effect of NAP treatment)", "setting": "[1]; Adnp deficient mice", "value": "partially reverses"}, {"measurement": "Total Eubacterial loads", "setting": "[1]; female Adnp+/+ mice, fecal samples, NAP treated (data not shown)", "value": "essentially lower total Eubacterial loads"}, {"measurement": "Trending genotype increases in microbiota groups corrected by NAP treatment", "setting": "[1]; female Adnp+/− mice", "value": "significantly corrected two trending genotype increases"}, {"measurement": "Clostridium coccoides group (Coer) abundance", "setting": "[1]; [6]", "value": "significant NAP-dependent decreases"}, {"measurement": "Enterococcus genus (gEncocc) numbers", "setting": "[1]; [6]", "value": "lower fecal Enterococcus genus (gEncocc) numbers"}, {"measurement": "Bacteroides/Prevotella spp (Bac) abundance", "setting": "[1]; [7]", "value": "neither affected by genotype nor by NAP treatment"}, {"measurement": "Bifidobacterium genus (BIF) abundance", "setting": "[1]; [7]", "value": "neither affected by genotype nor by NAP treatment"}, {"measurement": "Enterobacteriaceae (Entero) abundance", "setting": "[1]; [7]", "value": "neither affected by genotype nor by NAP treatment"}, {"measurement": "Eubacteriaceae (EubV3) abundance", "setting": "[1]; [7]", "value": "neither affected by genotype nor by NAP treatment"}, {"measurement": "Mouse Intestinal Bacteroides (MIB) abundance", "setting": "[1]; [7]", "value": "neither affected by genotype nor by NAP treatment"}, {"measurement": "Clostridium coccoides group (Coer) intestinal numbers", "setting": "[1]; male Adnp+/+ controls, NAP treated compared to placebo treated (data not shown)", "value": "higher intestinal numbers"}, {"measurement": "Genotype affected microbiota groups whose deficit was reversed by NAP treatment", "setting": "[1]; male Adnp+/− mice", "value": "four out of five"}, {"measurement": "Bifidobacterium genus (BIF) abundance", "setting": "[1]; [8]", "value": "decreased to control levels"}, {"measurement": "Clostridium coccoides group (Coer) abundance", "setting": "[1]; [8]", "value": "except for Clostridium coccoides group (Coer) decreased to control levels"}, {"measurement": "Lactobacillus group (Lacto) abundance", "setting": "[1]; [8]", "value": "decreased to control levels"}, {"measurement": "Mouse Intestinal Bacteroides (MIB) abundance", "setting": "[1]; [8]", "value": "decreased to control levels"}, {"measurement": "Total Eubacterial loads (EubV3)", "setting": "[1]; [8]", "value": "decreased to control levels"}, {"measurement": "Bacteroides/Prevotella spp (Bac) abundance", "setting": "[1]; [9]", "value": "neither affected by genotype nor by NAP treatment"}, {"measurement": "Clostridium Cluster IV (sgClep) abundance", "setting": "[1]; [9]", "value": "neither affected by genotype nor by NAP treatment"}, {"measurement": "Enterobacteriaceae (Entero) abundance", "setting": "[1]; [9]", "value": "neither affected by genotype nor by NAP treatment"}, {"measurement": "Enterococcus genus (gEncocc) abundance", "setting": "[1]; [9]", "value": "neither affected by genotype nor by NAP treatment"}, {"measurement": "Behavioral changes (overall effect of NAP treatment)", "setting": "Adnp+/− mice [2]; Adnp deficient mice", "value": "partially reverses"}, {"measurement": "Time spent in the center area (open field)", "setting": "Adnp+/− mice [2]; Adnp+/+, Adnp+/− and NAP treated Adnp+/− mice, FIG. 3B", "value": "did not reveal significant changes"}, {"measurement": "Frequency entrance to the center area (open field)", "setting": "Adnp+/− mice [2]; untreated male Adnp+/− mice vs Adnp+/+ (p<0.01) and vs NAP treated Adnp+/− mice (p<0.05), FIG. 3A", "value": "significantly higher frequency entrance in to the center area compared to Adnp^+/+ mice and NAP treated Adnp^+/− mice"}, {"measurement": "Body weight", "setting": "[3]", "value": "increased weight"}, {"measurement": "Anti-inflammatory effects", "setting": "[4]", "value": "anti-inflammatory NAP effects were observed"}, {"measurement": "Behavioral and developmental defects", "setting": "Adnp+/− mice [5]", "value": "at least partially reverse behavioral and developmental defects"}, {"measurement": "Aberrant visual evoked potential patterns", "setting": "Adnp p.Tyr718* mice", "value": "rapidly corrected"}]}
